Results as given in US4487716A, “N-(1-Carboxy-3-phenylpropyl)-dipeptides” (American Home Products Corporation, priority 1982, dated 1984).
pIC50: −log10 of the molar value. Each block holds one molecule with its values, some of them ahead of it.

Experiments:
[1] = test system: male spontaneously hypertensive rats; assay: Systolic blood pressure in male spontaneously hypertensive rats after oral administration; type: in vivo; settings: groups of four rats; for Blood Pressure: systolic; for effect on systolic blood pressure (in words): oral administration
Experimental: Blood pressures were read prior to drug administration and at 1.5, 4 and 24 hours thereafter using a Decker Caudal Plethysmograph.

[2] = molecular target: T1, angiotensin converting enzyme (Oryctolagus cuniculus, UniProt P12822); assay: Inhibition of hippuryl-L-histidyl-L-leucine hydrolysis by angiotensin converting enzyme; type: biochemical; settings: rabbit lung ACE, substrate HHL 5 mM, 37° C., 30 min
T1 construct: A crude angiotensin converting enzyme supernatant is obtained by blending 1 gm. of rabbit lung acetone powder; tissue PelFreez Biologicals; host or cells: rabbit lung acetone powder
T1 sequence (P12822 34-1310): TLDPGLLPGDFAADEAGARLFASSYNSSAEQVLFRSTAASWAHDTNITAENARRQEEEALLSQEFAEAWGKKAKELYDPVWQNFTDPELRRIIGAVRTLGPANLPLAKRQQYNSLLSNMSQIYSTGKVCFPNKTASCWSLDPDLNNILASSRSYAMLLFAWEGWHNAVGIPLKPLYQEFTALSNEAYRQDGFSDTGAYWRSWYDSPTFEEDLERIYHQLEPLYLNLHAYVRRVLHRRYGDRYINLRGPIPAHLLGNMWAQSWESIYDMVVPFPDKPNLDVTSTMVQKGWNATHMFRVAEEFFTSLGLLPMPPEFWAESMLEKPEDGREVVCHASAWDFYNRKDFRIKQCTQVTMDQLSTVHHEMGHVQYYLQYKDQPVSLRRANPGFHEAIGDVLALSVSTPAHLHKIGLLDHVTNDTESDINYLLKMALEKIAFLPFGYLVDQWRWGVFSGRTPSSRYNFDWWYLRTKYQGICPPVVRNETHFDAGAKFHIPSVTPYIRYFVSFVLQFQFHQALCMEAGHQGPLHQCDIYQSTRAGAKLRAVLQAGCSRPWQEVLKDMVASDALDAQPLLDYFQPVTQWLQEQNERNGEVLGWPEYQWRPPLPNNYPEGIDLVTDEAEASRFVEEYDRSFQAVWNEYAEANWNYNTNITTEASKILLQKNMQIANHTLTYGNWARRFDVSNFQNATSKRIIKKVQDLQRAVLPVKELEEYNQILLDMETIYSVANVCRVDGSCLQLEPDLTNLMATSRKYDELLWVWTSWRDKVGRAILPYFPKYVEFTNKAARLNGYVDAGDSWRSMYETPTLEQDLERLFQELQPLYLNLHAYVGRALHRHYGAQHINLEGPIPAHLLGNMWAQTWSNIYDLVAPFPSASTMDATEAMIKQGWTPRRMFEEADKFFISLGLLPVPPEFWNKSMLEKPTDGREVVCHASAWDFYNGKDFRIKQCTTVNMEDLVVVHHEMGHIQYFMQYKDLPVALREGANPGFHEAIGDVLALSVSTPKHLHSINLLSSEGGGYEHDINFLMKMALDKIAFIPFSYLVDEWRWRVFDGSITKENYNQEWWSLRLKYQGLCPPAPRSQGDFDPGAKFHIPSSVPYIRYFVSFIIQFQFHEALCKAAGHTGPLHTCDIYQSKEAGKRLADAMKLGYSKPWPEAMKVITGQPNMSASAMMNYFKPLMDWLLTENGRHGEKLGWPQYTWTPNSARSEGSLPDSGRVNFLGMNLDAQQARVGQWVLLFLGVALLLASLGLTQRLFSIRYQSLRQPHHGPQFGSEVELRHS
Experimental: The activity of the compounds of this invention was established by incubation of hippuryl-L-histidyl-L-leucine at 37° C. with angiotensin converting enzyme by the following procedure:
A crude angiotensin converting enzyme supernatant is obtained by blending 1 gm. of rabbit lung acetone powder (PelFreez Biologicals) with 35 ml. of 50 mM (buffered) potassium phosphate, pH 8.3 and centrifuging for 45 min. at 40,000×g.
The specific angiotensin converting enzyme substrate Hippuryl-L-histidyl-L-leucine (HHL-Sigma Chem. Co.) is prepared at 5 mM in 200 mM potassium phosphate buffer containing 757 mM NaCl at pH 8.3.
Incubation for the assay of HHL hydrolysis by angiotensin converting enzyme is carried out in a 37° C. gyrorotary incubator in disposable 13×100 mm tubes. Each 0.25 ml assay mixture contains the following components at the final concentrations: potassium phosphate buffer, 100 mM; NaCl, 300 mM; HHL, 5 mM; and enzyme 0.15 ml (10 mU approx.) added last to initiate the reaction. Zero time controls have 0.25 ml of 2N HCl added before the enzyme. The timed reactions are terminated with acid at 30 min. similarly and the hippuric acid freed from substrate is extracted into 1.5 ml of ethyl acetate layer is transferred to a clean tube. […]
The hippuric acid is resuspended in 1.0 ml of water, the absorbance at […] is determined, and the amount present is calculated from a standard curve. […]

Molecule: N^α -(DL-1-carboxy-3-phenylpropyl)-L-lysyl-N-p-methoxyphenylglycine [Example 3]
Blood Pressure ([1]; 50 mg/kg PO, 1.5 hours): 183 mmHg
Blood Pressure ([1]; 50 mg/kg PO, 4 hours): 181 mmHg
Blood Pressure ([1]; 50 mg/kg PO, 24 hours): 204 mmHg
effect on systolic blood pressure (in words) [1]: reduce systolic blood pressure

pIC50 [2]: 6.84
Molecule: NCCCC[C@H](NC(CCc1ccccc1)C(=O)O)C(=O)N(CC(=O)O)c1ccccc1 (mixture of isomers) [Example 2, N^α -(DL-1-carboxy-3-phenylpropyl)-L-lysyl-N-phenylglycine]
Blood Pressure ([1]; 150 mg/kg PO, 1.5 hours): 196 mmHg
Blood Pressure ([1]; 150 mg/kg PO, 4 hours): 194 mmHg
effect on systolic blood pressure (in words) [1]: reduce systolic blood pressure
